Test results reported in patent US6875760B2 (Novo Nordisk A/S, priority 1999, dated 2005).

Target: T1, human glucagon receptor (Homo sapiens, UniProt P47871)
T1 construct: expressed in transfected cells; host or cells: BHK (baby hamster kidney) cells
Experiment: Glucagon Binding Assay (III)
Details: BHK cell membranes, WGA SPA beads, 125I-glucagon; read-out: Glu Bd Assay (III) IC50
Protocol: BHK (baby hamster kidney cell line) cells were transfected with the human glucagon receptor and a membrane preparation of the cells was prepared.
All steps in the membrane preparation were kept on ice or performed at 4° C. BHK cells were harvested and centrifuged. […] The pellet was resuspended in homogenisation buffer, homogenised 2×10 sec (Polytron) and additional homogenisation buffer was added. […] (Polytron).
The glucagon binding assay was carried out in opti plates (Polystyrene Microplates, Packard). […] Finally 50 μL WGA beads containing 1 mg beads were transferred to the well. The assay was incubated for 4 hours on a shaker and then settled for 8-48 hours. The opti plates were counted in a Topcounter. Non-specific binding was determined with 500 nM of glucagon.

T1 sequence (P47871 26-477): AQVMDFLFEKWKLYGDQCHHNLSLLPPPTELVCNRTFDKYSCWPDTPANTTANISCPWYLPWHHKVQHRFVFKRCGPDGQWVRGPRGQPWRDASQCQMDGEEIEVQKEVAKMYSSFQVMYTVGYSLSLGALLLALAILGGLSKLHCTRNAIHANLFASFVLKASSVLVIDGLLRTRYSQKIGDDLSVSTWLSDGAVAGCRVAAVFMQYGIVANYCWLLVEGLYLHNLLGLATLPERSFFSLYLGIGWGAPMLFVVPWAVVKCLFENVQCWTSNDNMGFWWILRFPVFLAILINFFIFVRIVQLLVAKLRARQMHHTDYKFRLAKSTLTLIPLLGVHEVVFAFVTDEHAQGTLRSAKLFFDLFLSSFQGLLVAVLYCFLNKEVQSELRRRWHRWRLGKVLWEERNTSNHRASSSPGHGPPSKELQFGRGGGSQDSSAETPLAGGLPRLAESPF

IC50 [nM] | SMILES
2670 | CS(=O)(=O)c1ccccc1NC(=O)N(Cc1ccc(C(=O)Nc2nn[nH]n2)cc1)c1ccc(C2CCCCC2)cc1 [Example 466, 4-[1-(4-Cyclohexylphenyl)-3-(2-methylsulfonylphenyl)ureidomethyl]-N-(2H-tetrazol-5-yl)benzamide]
327 | CCCCc1ccc(N(Cc2ccc(C(=O)Nc3nn[nH]n3)cc2)C(=O)Nc2cccc(S(C)(=O)=O)c2)cc1 [Example 447, 4-[1-(4-Butylphenyl)-3-(3-methylsulfonylphenyl)ureidomethyl]-N-(2H-tetrazol-5-yl)benzamide]
12 | N#Cc1ccc(NC(=O)N(Cc2ccc(C(=O)Nc3nn[nH]n3)cc2)c2ccc(C3=CCCCC3)cc2)cc1C(F)(F)F [Example 599, 4-[3-(4-Cyano-3-trifluoromethylphenyl)-1-(4-cyclohex-1-enylphenyl)ureidomethyl]-N-(2H-tetrazol-5-yl)benzamide]
23 | Cc1cc(NC(=O)N(Cc2ccc(C(=O)Nc3nn[nH]n3)cc2)C2CCC(C(C)(C)C)CC2)cc(C(F)(F)F)c1 (stereo not drawn) [Example 363, 4-[1-(4-tert-Butylcyclohexyl)-3-(3-methyl-5-trifluoromethylphenyl)ureidomethyl]-N-(2H-tetrazol-5-yl)benzamide]
886 | CC(C)(C)C1CCC(N(Cc2ccc(C(=O)Nc3nn[nH]n3)cc2)C(=O)c2cc3ccccc3o2)CC1 (stereo not drawn) [Example 475, Benzofuran-2-carboxylic acid (4-tert-butylcyclohexyl)-[4-(2H-tetrazol-5-ylcarbamoyl)benzyl]amide]
2200 | COc1ccc(NC(=O)N(Cc2ccc(C(=O)NCCC(=O)O)cc2)C2CCC(C(C)(C)C)CC2)cc1 (stereo not drawn) [Example 31, 3-{4-[1-(4-tert-Butylcyclohexyl)-3-(4-methoxyphenyl)ureidomethyl]benzoyl}aminopropionic acid]
222 | O=C(Nc1nn[nH]n1)c1ccc(CN(C(=O)Nc2ccc(OC(F)(F)F)cc2)C2CCC(C3CC3)CC2)cc1 (stereo not drawn) [Example 604, 4-[1-(4-Cyclopropylcyclohexyl)-3-(4-trifluoromethoxyphenyl)ureidomethyl]-N-(2H-tetrazol-5-yl)benzamide]
606 | CCCCNC(=O)c1cccc(NC(=O)N(Cc2ccc(C(=O)Nc3nn[nH]n3)cc2)c2ccc(C3CCCCC3)cc2)c1 [Example 465, N-Butyl-3-{3-(4-cyclohexylphenyl)-3-[4-(2H-tetrazol-5-ylcarbamoyl)benzyl]ureido}benzamide]
1480 | CCC(C)c1ccc(N(Cc2ccc(C(=O)Nc3nn[nH]n3)cc2)C(=O)Nc2ccc(S(C)(=O)=O)cc2)cc1 (stereo not drawn) [Example 448, 4-[1-(4-sec-Butylphenyl)-3-(4-methylsulfonylphenyl)ureidomethyl]-N-(2H-tetrazol-5-yl)benzamide]
288 | O=C(O)CCNC(=O)c1ccc(CN(C(=O)Nc2ccc(OC(F)(F)F)cc2)c2ccc(OC(F)(F)F)cc2)cc1 [Example 438, 3-{4-[1,3-Bis(4-trifluoromethoxyphenyl)ureidomethyl]benzoylamino}propionic acid]
21 | O=C(Nc1nn[nH]n1)c1ccc(CN(C(=O)Nc2cccc(OC(F)(F)F)c2)c2ccc(C3=CCCCC3)cc2)cc1 [Example 352, 4-[1-(4-Cyclohex-1-enylphenyl)-3-(3-trifluoromethoxyphenyl)ureidomethyl]-N-(2H-tetrazol-5-yl)benzamide]
28 | CS(=O)(=O)c1ccc(NC(=O)N(Cc2ccc(C(=O)Nc3nn[nH]n3)cc2)c2ccc(C3CCCCC3)cc2)s1 [Example 320, 4-[1-(4-Cyclohexylphenyl)-3-(5-methylsulfonylthiophen-2-yl)ureidomethyl]-N-(2H-tetrazol-5-yl)benzamide]
201 | CC(C)(C)C1CCC(N(Cc2ccc(C(=O)Nc3nn[nH]n3)cc2)C(=O)Cc2cccc(OC(F)(F)F)c2)CC1 (stereo not drawn) [Example 543, 4-({(4-tert-Butylcyclohexyl)-[2-(3-trifluoromethoxyphenyl)acetyl]amino}methyl)-N-(2H-tetrazol-5-yl)benzamide]
1060 | O=C(Nc1nn[nH]n1)c1ccc(CN(C(=O)c2cc3cc(OC(F)(F)F)ccc3[nH]2)c2ccc(C3CCCCC3)cc2)cc1 [Example 558, 5-Trifluoromethoxy-1H-indole-2-carboxylic acid (4-cyclohexylphenyl)-[4-(2H-tetrazol-5-ylcarbamoyl)benzyl]amide]
1320 | CCCCOC(=O)c1ccc(NC(=O)N(Cc2ccc(C(=O)NCCC(=O)O)cc2)CC(C)c2ccccc2)cc1 (stereo not drawn) [Example 49, 4-[3-[4-(2-Carboxyethylcarbamoyl)benzyl]-3-(2-phenylpropyl)ureido]benzoic acid butyl ester]
167 | O=C(O)CCNC(=O)c1ccc(CN(C(=O)Nc2cccc([N+](=O)[O-])c2)c2ccc(C3CCCCC3)cc2)cc1 [Example 443, 3-{4-[1-(4-Cyclohexylphenyl)-3-(3-nitrophenyl)ureidomethyl]benzoylamino}propionic acid]
21 | O=C(Nc1nn[nH]n1)c1ccc(CN(C(=O)Nc2cc(C(F)(F)F)cc(C(F)(F)F)c2)c2ccc(C3=CCCCC3)cc2)cc1 [Example 268, 4-[3-(3,5-Bis-trifluoromethylphenyl)-1-(4-cyclohex-1-enylphenyl)ureidomethyl]-N-(2H-tetrazol-5-yl)benzamide]
26 | O=C(Nc1nn[nH]n1)c1ccc(CN(C(=O)Nc2cccc([N+](=O)[O-])c2)c2ccc(C3CCCCC3)cc2)cc1 [Example 286, 4-[1-(4-Cyclohexylphenyl)-3-(3-nitrophenyl)ureidomethyl]-N-(2H-tetrazol-5-yl)benzamide]
15 | Cc1ccc(NC(=O)N(Cc2ccc(C(=O)Nc3nn[nH]n3)cc2)c2ccc(C3CCCCC3)cc2)cc1Cl [Example 327, 4-[3-(3-Chloro-4-methylphenyl)-1-(4-cyclohexylphenyl)ureidomethyl]-N-(2H-tetrazol-5-yl)benzamide]

SMILES | IC50 [nM]
CSc1ccc(OC(=O)N(Cc2ccc(C(=O)NCCC(=O)O)cc2)c2ccc(C3CCCCC3)cc2)cc1 [Example 418, 3-(4-{[(4-Cyclohexylphenyl)-(4-methylsulfanylphenoxycarbonyl)amino]methyl}benzoylamino)propionic acid] | 472
CC(C)(C)C1CCC(N(Cc2ccc(C(=O)NCCC(=O)O)cc2)C(=O)Oc2ccc(Cl)c(Cl)c2)CC1 (stereo not drawn) [Example 401, 3-(4-{[(4-tert-Butylcyclohexyl)-(3,4-dichlorophenoxycarbonyl)amino]methyl}benzoylamino)propionic acid] | 176
CC(C)(C)C1CCC(N(Cc2ccc(C(=O)NCCC(=O)O)cc2)C(=O)Oc2ccc([N+](=O)[O-])cc2)CC1 (stereo not drawn) [Example 399, 3-(4-{[(4-tert-Butylcyclohexyl)-(4-nitrophenoxycarbonyl)amino]methyl}benzoylamino)propionic acid] | 120
CC(C)(C)[C@H]1CC[C@H](N(Cc2ccc(C(=O)NCCC(=O)O)cc2)C(=O)Nc2cc(C(F)(F)F)cc(C(F)(F)F)c2)CC1 [Example 100, 3-{4-[3-(3,5-Bis-trifluoromethylphenyl)-1-(trans-4-tert-butylcyclohexyl)ureidomethyl]benzoylamino}propionic acid] | 50

Same assay, conditions: Glu Bd Assay (III) IC50 (nM), BHK cell membranes, WGA SPA beads, 125I-glucagon

SMILES | IC50 [nM]
CC(C)(C)[C@H]1CC[C@@H](N(Cc2ccc(C(=O)NCCC(=O)O)cc2)C(=O)Nc2ccc(OC(F)(F)F)cc2)CC1 [Example 93, 3-{4-[1-(cis-4-tert-Butylcyclohexyl)-3-(4-trifluoromethoxy-phenyl)ureidomethyl]benzoylamino}propionic acid] | 47
